Series [1] has as its target T1, Protein kinase C iota type (Homo sapiens, UniProt P41743).
T1 sequence (P41743 whole entry): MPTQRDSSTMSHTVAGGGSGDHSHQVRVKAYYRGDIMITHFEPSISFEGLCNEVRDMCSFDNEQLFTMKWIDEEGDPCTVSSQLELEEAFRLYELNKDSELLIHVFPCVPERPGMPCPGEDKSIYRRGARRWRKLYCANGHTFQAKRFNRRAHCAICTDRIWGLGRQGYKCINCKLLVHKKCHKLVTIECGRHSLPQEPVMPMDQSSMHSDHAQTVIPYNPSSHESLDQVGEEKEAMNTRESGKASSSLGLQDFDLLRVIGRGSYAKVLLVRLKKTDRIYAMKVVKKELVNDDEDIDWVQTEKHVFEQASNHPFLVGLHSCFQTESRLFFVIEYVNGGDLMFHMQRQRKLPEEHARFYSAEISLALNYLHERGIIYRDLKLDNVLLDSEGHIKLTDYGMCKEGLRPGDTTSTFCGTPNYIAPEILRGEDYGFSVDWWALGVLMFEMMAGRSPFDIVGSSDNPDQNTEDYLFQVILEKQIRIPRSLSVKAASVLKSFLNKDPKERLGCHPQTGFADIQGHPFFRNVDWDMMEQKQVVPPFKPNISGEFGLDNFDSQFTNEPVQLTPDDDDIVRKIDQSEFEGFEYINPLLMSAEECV
Briefly: Inhibition of full-length N-terminal GST-fused human PKC-iota expressed in baculovirus expression system using (5FAM) RFARKGSLRQKNV as substrate after 60 mins by caliper assay.

For series [2], the target named is Protein kinase C alpha type (Homo sapiens, UniProt P17252). Nature of the series: Inhibition of full-length N-terminal GST-fused human PKC-alpha expressed in baculovirus expression system using (5FAM) RFARKGSLRQKNV as substrate after 60 mins by caliper assay.
The target in series [3] is T2, Protein kinase C epsilon type (Homo sapiens, UniProt Q02156).
T2 sequence (Q02156 whole entry): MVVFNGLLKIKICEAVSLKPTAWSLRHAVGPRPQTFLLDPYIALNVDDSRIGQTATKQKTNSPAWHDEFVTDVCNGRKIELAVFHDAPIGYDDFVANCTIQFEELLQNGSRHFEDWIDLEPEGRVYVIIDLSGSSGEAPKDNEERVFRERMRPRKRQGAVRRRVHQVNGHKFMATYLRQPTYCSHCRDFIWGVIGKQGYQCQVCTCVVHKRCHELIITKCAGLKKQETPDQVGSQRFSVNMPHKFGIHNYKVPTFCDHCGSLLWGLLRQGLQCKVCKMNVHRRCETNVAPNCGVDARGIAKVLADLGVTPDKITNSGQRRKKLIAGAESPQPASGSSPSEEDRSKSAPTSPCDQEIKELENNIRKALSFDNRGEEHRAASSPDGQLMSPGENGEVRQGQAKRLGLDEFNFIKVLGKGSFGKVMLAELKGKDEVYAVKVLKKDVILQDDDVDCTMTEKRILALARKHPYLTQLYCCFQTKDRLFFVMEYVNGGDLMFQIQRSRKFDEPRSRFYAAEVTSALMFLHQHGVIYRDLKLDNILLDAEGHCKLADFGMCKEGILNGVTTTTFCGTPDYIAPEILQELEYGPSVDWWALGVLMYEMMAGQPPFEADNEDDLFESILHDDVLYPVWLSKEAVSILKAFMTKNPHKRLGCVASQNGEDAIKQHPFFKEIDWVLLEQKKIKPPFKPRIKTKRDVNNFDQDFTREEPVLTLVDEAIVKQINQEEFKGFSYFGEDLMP
Nature of the series: Inhibition of full-length N-terminal GST-fused human PKC-epsilon expressed in baculovirus expression system using (5FAM) RFARKGSLRQKNV as substrate after 60 mins by caliper assay.

A further series deals with Huh-7. Briefly: Antiproliferative activity against human HuH7 cells after 72 hrs by CellTiter-Glo assay. As to conditions: Huh-7, 72 h. The series is classed as functional. Background: ATP-based viability assays read luminescence as a measure of living cells.
A further series deals with HCCLM3. Nature of the series: Antiproliferative activity against human HCCLM3 cells after 72 hrs by CellTiter-Glo assay. It is filed as functional. Conditions: HCCLM3, 72 h.
Series [4] in a line: Solubility of the compound at pH 7.4. The series is classed as physicochemical. Conditions: buffer.
Series [5] is described as follows: Half life in mouse liver microsomes. The series is classed as ADME, microsome. Background: Liver microsomes are vesicles of endoplasmic reticulum, rich in cytochrome P450 enzymes.
A short description of series [6]: Clearance in mouse liver microsomes. The series is classed as ADME, microsome. Conditions: read-out: CLH.
Series [7] is described as follows: Clearance in human liver microsomes. The series is classed as ADME, microsome. As to conditions: read-out: CLH.
Series [8] is described as follows: Solubility of the compound at pH 4. As to conditions: buffer. The series is classed as physicochemical.
In a further series the target is Cytochrome P450 2D6 (Homo sapiens, UniProt P10635). Nature of the series: Inhibition of CYP2D6 (unknown origin). It is filed as ADME.
Chain of Cytochrome P450 2D6 (P10635 whole entry): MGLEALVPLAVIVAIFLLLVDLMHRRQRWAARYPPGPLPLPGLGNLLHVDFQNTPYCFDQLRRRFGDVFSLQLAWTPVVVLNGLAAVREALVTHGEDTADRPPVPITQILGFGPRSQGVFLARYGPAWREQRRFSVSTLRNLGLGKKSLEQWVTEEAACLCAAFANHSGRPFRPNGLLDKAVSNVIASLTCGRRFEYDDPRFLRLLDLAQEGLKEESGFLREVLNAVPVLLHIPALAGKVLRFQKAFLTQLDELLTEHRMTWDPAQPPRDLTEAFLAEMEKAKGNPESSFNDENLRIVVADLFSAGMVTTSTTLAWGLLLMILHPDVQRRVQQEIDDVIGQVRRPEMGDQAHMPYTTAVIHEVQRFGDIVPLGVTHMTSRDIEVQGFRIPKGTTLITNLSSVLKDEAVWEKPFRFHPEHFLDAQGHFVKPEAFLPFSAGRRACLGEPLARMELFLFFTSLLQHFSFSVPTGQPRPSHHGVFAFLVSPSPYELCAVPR
A short description of series [9]: Half life in human liver microsomes. It is filed as ADME, microsome.
The nature of series [10]: Permeability across apical to basolateral side in human Caco2 cells. Conditions: Caco-2, read-out: permeability. It is filed as ADME, cell-based.

Converted amounts (≈) assume the structure as drawn.

The term IC50 denotes the concentration at which inhibition is half-maximal. `Nc1ccc2[nH]cnc2c1`: in series [1], it took 728 µM to reach half-maximal inhibition (IC50).
The same measure, in the same setting: to `O=C1CCCc2cc(O)ccc21` belongs 1680 µM.
The compound `COc1cc2c(cc1-c1cnn3ccc(-c4ccnc5[nH]ccc45)cc13)CNCC2` yielded an IC50 in [2] of 0.071 µM.
On the same count and under the same terms, as for `COc1ccc2c(c1)C(=O)N(c1cnn3ccc(-c4ccnc5[nH]ccc45)cc13)C2`, the figure is 2.5 µM.
With `Clc1ccnc2[nH]ccc12`, 1300 µM corresponded to half-maximal inhibition in series [1] (IC50).
`COc1cc2c(cc1-c1cnc3ccc(-c4ccnc5[nH]ccc45)cn13)CNC2` registered an IC50 in [2] of 0.34 µM.
`COc1cc2c(cc1-c1cnn3ccc(-c4ccnc5[nH]ccc45)cc13)CN(C)C2` yielded an IC50 in [2] of 0.14 µM.
The compound `Brc1ccnc2[nH]ccc12` yielded a concentration for half-maximal inhibition (IC50) in series [1] of 615 µM.
As to `COc1cc2c(cc1-n1cnc3cnc(-c4ccnc5[nH]ccc45)cc31)CNC2`, in [2], the IC50 came to 0.25 µM.
As to `COc1cc2c(cc1-c1cnn3ccc(-c4ccnc5[nH]ccc45)cc13)CNC(C)C2` (centres undefined), the IC50 in series [2] worked out at 0.064 µM.
The same measure, in the same setting: as for `COc1cc2c(cc1-c1cnn3ccc(-c4ccnc5[nH]ccc45)nc13)CNC2`, the figure is 0.35 µM.
A word on the GI50: it is the concentration at which growth is held to half of that of the control. Low readings indicate greater sensitivity of the cells, high ones lower sensitivity of the cells. With `COc1cc2c(cc1-c1cnn3ccc(-c4ccnc5[nH]ccc45)cc13)CNC(CF)C2` (centres undefined), the figures for the IC50 in series [3], in [2] and in [1] were 0.045 µM, 0.045 µM and 0.0027 µM, respectively. The figures for the GI50 in the series with Huh-7 and in the series on HCCLM3 were 3.3 µM and 6.6 µM, respectively.
Consider `COc1cc2c(cc1-n1cnc3ccc(-c4ccnc5[nH]ccc45)nc31)CNC2`, for which, in series [2], the IC50 is 0.43 µM.
A word on the solubility: it is the dissolved amount per volume that the medium holds. Low values mean little dissolved substance, high ones much dissolved substance. The term half-life denotes the time in which the quantity being followed falls by half. Turning to `COc1cc2c(cc1-n1cnc3ccc(-c4ccnc5[nH]ccc45)cc31)CNC2`, the results for the solubility in series [4] and in series [8] were 1.3 µg/mL (≈ 3.41 µM) and 790 µg/mL (≈ 2070 µM), respectively. Moreover, the IC50 in series [3] stood at 0.56 µM; in [2] it was 0.28 µM; on Cytochrome P450 2D6, 24 µM; in series [1] it was 0.048 µM. Further, the half-life in series [5] amounted to 32 min; in [9] it was 67 min. Also, the microsomal CLint was 21.5 µL/min/mg in [6] and 10 µL/min/mg in series [7]. This compound registered a concentration for 50% growth inhibition (GI50) in the series with Huh-7 of 9 µM. For the same compound, the Papp A→B in series [10] came to 0.57 ×10⁻⁶ cm/s.
`COc1cc2c(cc1-c1cnc3ccc(-c4ccnc5[nH]ccc45)nn13)CNC2` gave an IC50 in series [2] of 1.4 µM.
Compound `COc1cc2c(cc1-c1cnn3ccc(-c4ccnc5[nH]ccc45)cc13)CN(C(C)=O)C2` had an IC50 in [2] of 0.38 µM.
Turning to `Cn1ccc2cc(N)ccc21`, the IC50 in [1] was 1310 µM. This counts as millimolar.
Take `COc1cc2c(cc1-c1cnn3ccc(-c4ccnc5[nH]ccc45)cc13)CNC2`: the IC50 in series [2] stood at 0.11 µM.
In the case of `O=c1[nH]ncc2ccccc12` [PHTHALAZINONE], half-maximal inhibition in series [1] (IC50) required 589 µM.

The record behind these values is ChEMBL document CHEMBL4184321, “Fragment-Based Drug Discovery of Potent Protein Kinase C Iota Inhibitors” (J Med Chem, 2018).
